Laboratory results published in the NIST ThermoML archive (doi:10.1021/je049878m).
± gives the expanded uncertainty stated by the source.

conditions: Crystal

Normal melting temperature [°C] | SMILES
151 ± 1 | CC(=O)Nc1ccc(C)cc1 [1-acetamido-4-methylbenzene]
144.8 ± 1 | COc1cc(OC)c(C(=O)O)cc1OC [2,4,5-trimethoxybenzoic acid]
174.5 ± 1 | Nc1ccccc1O [2-hydroxybenzenamine]
123.7 ± 1 | Nc1cccc(O)c1 [3-hydroxybenzenamine]
109.6 ± 1 | CC(=O)Nc1ccccc1C [o-acetotoluide]

SMILES | Normal melting temperature [°C]
COc1cc(C(=O)O)cc(OC)c1OC [3,4,5-trimethoxybenzoic acid] | 171.4 ± 1
